According to the supplement of paper PMC10307832:

What follows are cell lines tested with CC1=NN=C(O1)C2=NN=C(C=C2)N3CCC(CC3)OC4=C(C=CC(=C4)F)Cl + C[C@@H](Oc1cc(-c2cnn(C3CCNCC3)c2)cnc1N)c1c(Cl)ccc(F)c1Cl [Crizotinib] (partner 1 µM) (assay: relative viability (nuclei count vs DMSO), 5 days (fraction); higher = more cells survive). Details: first compound 2.53 µM.
Summary of the method: (§1)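 Medians of duplicate plates are given as relative viability. That measure is the nuclei count in treated wells divided by the count in vehicle wells. Counts were taken on 4× images of lung cancer cell lines in 1536-well plates, 5 days after pin-tool dosing the day after seeding with one drug alone or a fixed anchor-drug dose plus five library-drug doses (not always all listed) in √10 steps.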

Q: Which relative viability does the source give for NCI-H2405 here?
A: 0.465

Q: For EMC-BAC-2, which relative viability is on record?
A: 0.632

Q: NCI-H23 was tested. Which relative viability did it give?
A: 0.454

Q: With Calu-6 as the cell line, how does the relative viability read?
A: 0.483

Q: HCC-366 was tested. Which relative viability did it give?
A: 0.256

Q: For NCI-H1755, which relative viability is on record?
A: 0.619

Q: How did the relative viability turn out when NCI-H838 was run?
A: 0.731

Q: Which relative viability does the source give for LK-2 here?
A: 0.24

Q: NCI-H2347 was tested. Which relative viability did it give?
A: 0.646

Q: SK-MES-1 was tested. Which relative viability did it give?
A: 0.81

Q: For H3255, which relative viability is on record?
A: 0.538

Q: Which relative viability does the source give for COR-L23 here?
A: 0.433

Q: With COR-L 105 as the cell line, how does the relative viability read?
A: 0.786

Q: How did the relative viability turn out when IA-LM was run?
A: 0.288

Q: Which relative viability does the source give for LU99A here?
A: 0.655

Q: ChaGo-K-1 was tested. Which relative viability did it give?
A: 0.721

Q: For NCI-H2170, which relative viability is on record?
A: 0.638

Q: How did the relative viability turn out when NCI-H460 was run?
A: 0.311

Q: Which relative viability does the source give for A549 here?
A: 0.316

Q: With NCI-H1299 as the cell line, how does the relative viability read?
A: 0.756

Q: CAL-12T was tested. Which relative viability did it give?
A: 0.728

Q: For NCI-H1563, which relative viability is on record?
A: 0.837

Q: For NCI-H2228, which relative viability is on record?
A: 0.533

Q: For NCI-H1944, which relative viability is on record?
A: 0.566

Q: ABC-1 was tested. Which relative viability did it give?
A: 0.426

Q: NCI-H358 was tested. Which relative viability did it give?
A: 0.509

Same assay, conditions: first compound 8 µM

Q: With SK-LU-1 as the cell line, how does the relative viability read?
A: 0.589

Q: With NCI-H1703 as the cell line, how does the relative viability read?
A: 0.611

Q: How did the relative viability turn out when EBC-1 was run?
A: 0.202

Q: How did the relative viability turn out when NCI-H1792 was run?
A: 0.451

Q: NCI-H2087 was tested. Which relative viability did it give?
A: 0.486

Q: For NCI-H596, which relative viability is on record?
A: 0.795

Q: Which relative viability does the source give for NCI-H1355 here?
A: 0.959

Q: Which relative viability does the source give for SW 1573 here?
A: 0.664

Q: LCLC-103H was tested. Which relative viability did it give?
A: 0.746

Q: For NCI-H727, which relative viability is on record?
A: 0.683

Q: For NCI-H2405, which relative viability is on record?
A: 0.428

Q: How did the relative viability turn out when EMC-BAC-2 was run?
A: 0.545

Q: How did the relative viability turn out when NCI-H23 was run?
A: 0.441

Q: For Calu-6, which relative viability is on record?
A: 0.465

Q: For HCC-366, which relative viability is on record?
A: 0.272

Q: NCI-H1755 was tested. Which relative viability did it give?
A: 0.512

Q: With NCI-H838 as the cell line, how does the relative viability read?
A: 0.683

Q: Which relative viability does the source give for LK-2 here?
A: 0.259

Q: For NCI-H2347, which relative viability is on record?
A: 0.607

Q: With SK-MES-1 as the cell line, how does the relative viability read?
A: 0.724

Q: For H3255, which relative viability is on record?
A: 0.625

Q: Which relative viability does the source give for COR-L23 here?
A: 0.435

Q: How did the relative viability turn out when COR-L 105 was run?
A: 0.82

Q: IA-LM was tested. Which relative viability did it give?
A: 0.34

Q: For LU99A, which relative viability is on record?
A: 0.552

Q: ChaGo-K-1 was tested. Which relative viability did it give?
A: 0.694

Q: For NCI-H2170, which relative viability is on record?
A: 0.449

Q: Which relative viability does the source give for NCI-H460 here?
A: 0.296

Q: How did the relative viability turn out when A549 was run?
A: 0.319

Q: How did the relative viability turn out when NCI-H1299 was run?
A: 0.689

Q: For CAL-12T, which relative viability is on record?
A: 0.506

Q: For NCI-H1563, which relative viability is on record?
A: 0.868

Q: Which relative viability does the source give for NCI-H2228 here?
A: 0.42

Q: NCI-H1944 was tested. Which relative viability did it give?
A: 0.529

Q: How did the relative viability turn out when ABC-1 was run?
A: 0.436

Q: Which relative viability does the source give for NCI-H358 here?
A: 0.466

The cell lines below were run with CC(C)C[C@@H](C(=O)N[C@H](C(=O)OC1CCCC1)c1ccccc1)[C@H](O)C(=O)NO [Tosedostat] + Nc1ncn([C@H]2C[C@H](O)[C@@H](CO)O2)c(=O)n1 [Decitabine] (partner 2 µM) in the same assay as above. Details: first compound 0.02 µM.
Summary of the method: as §1

Q: NCI-H522 was tested. Which relative viability did it give?
A: 0.594

Q: How did the relative viability turn out when SK-LU-1 was run?
A: 0.624

Q: How did the relative viability turn out when NCI-H1792 was run?
A: 0.62

Q: Which relative viability does the source give for NCI-H2087 here?
A: 0.37

Q: NCI-H596 was tested. Which relative viability did it give?
A: 1.3

Q: Which relative viability does the source give for NCI-H1355 here?
A: 0.347

Q: How did the relative viability turn out when SW 1573 was run?
A: 0.675

Q: How did the relative viability turn out when LCLC-103H was run?
A: 0.792

Q: Which relative viability does the source give for NCI-H727 here?
A: 0.88

Q: How did the relative viability turn out when NCI-H2405 was run?
A: 0.772

Q: With EMC-BAC-2 as the cell line, how does the relative viability read?
A: 1.04

Q: NCI-H23 was tested. Which relative viability did it give?
A: 0.309

Q: With HCC-366 as the cell line, how does the relative viability read?
A: 0.332

Q: For NCI-H1755, which relative viability is on record?
A: 0.861

Q: With NCI-H838 as the cell line, how does the relative viability read?
A: 0.483

Q: Which relative viability does the source give for LK-2 here?
A: 0.305

Q: For NCI-H2347, which relative viability is on record?
A: 0.64
